Source: ChEMBL document CHEMBL5291721, “A preclinical secondary pharmacology resource illuminates target-adverse drug reaction associations of marketed drugs” (Nat Commun, 2023)

Assays:
Cannabinoid receptor 1 [1] = target: T1, Cannabinoid receptor 1 (Homo sapiens, UniProt P21554); format: functional, cell-based
Adenosine receptor A2a = Adenosine receptor A2a (Homo sapiens, UniProt P29274)
[2] = target: T2, 5-hydroxytryptamine receptor 3A (Homo sapiens, UniProt P46098); format: functional
T2 sequence (P46098 whole entry): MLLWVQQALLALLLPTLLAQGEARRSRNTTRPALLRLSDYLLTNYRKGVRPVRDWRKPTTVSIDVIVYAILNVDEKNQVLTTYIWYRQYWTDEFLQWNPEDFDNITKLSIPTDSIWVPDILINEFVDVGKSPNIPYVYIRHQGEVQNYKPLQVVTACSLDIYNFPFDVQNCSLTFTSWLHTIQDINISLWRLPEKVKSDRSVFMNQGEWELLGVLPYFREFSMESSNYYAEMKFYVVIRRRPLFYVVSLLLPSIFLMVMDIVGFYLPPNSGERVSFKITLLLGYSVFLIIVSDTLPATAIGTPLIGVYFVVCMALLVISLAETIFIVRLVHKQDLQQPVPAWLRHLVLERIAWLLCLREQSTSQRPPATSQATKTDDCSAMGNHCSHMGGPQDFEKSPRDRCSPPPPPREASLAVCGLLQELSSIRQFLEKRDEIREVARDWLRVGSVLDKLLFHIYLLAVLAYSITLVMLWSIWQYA

[3] = target: T3, Muscarinic acetylcholine receptor M2 (Homo sapiens, UniProt P08172); format: functional, cell-based
T3 sequence (P08172 whole entry): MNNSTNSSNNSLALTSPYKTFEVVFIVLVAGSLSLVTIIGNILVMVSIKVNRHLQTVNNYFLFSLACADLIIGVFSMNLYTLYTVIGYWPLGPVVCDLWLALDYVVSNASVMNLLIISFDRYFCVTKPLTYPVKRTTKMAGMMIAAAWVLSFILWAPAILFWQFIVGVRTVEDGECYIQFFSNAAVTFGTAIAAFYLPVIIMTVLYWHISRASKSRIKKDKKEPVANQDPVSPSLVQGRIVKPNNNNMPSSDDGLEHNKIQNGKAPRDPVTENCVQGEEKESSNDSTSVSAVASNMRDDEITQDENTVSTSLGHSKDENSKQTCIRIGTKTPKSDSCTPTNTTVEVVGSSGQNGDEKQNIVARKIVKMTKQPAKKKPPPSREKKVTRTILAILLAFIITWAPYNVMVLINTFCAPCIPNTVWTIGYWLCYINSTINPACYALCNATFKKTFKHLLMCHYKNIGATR

[4] = target: Sodium-dependent noradrenaline transporter (Homo sapiens, UniProt P23975)
Histamine H2 receptor = Histamine H2 receptor (Homo sapiens, UniProt P25021); format: functional, cell-based
D(3) dopamine receptor = D(3) dopamine receptor (Homo sapiens, UniProt P35462)
[5] = target: Beta-1 adrenergic receptor (Homo sapiens, UniProt P08588); format: functional
[6] = target: T3, Muscarinic acetylcholine receptor M2; format: functional, cell-based; remark: listed apart in the source
[7] = target: Gamma-aminobutyric acid receptor subunit alpha-1 (Rattus norvegicus, UniProt P62813)
Progesterone receptor = target: T4, Progesterone receptor (Homo sapiens, UniProt P06401); format: functional
T4 sequence (P06401 whole entry): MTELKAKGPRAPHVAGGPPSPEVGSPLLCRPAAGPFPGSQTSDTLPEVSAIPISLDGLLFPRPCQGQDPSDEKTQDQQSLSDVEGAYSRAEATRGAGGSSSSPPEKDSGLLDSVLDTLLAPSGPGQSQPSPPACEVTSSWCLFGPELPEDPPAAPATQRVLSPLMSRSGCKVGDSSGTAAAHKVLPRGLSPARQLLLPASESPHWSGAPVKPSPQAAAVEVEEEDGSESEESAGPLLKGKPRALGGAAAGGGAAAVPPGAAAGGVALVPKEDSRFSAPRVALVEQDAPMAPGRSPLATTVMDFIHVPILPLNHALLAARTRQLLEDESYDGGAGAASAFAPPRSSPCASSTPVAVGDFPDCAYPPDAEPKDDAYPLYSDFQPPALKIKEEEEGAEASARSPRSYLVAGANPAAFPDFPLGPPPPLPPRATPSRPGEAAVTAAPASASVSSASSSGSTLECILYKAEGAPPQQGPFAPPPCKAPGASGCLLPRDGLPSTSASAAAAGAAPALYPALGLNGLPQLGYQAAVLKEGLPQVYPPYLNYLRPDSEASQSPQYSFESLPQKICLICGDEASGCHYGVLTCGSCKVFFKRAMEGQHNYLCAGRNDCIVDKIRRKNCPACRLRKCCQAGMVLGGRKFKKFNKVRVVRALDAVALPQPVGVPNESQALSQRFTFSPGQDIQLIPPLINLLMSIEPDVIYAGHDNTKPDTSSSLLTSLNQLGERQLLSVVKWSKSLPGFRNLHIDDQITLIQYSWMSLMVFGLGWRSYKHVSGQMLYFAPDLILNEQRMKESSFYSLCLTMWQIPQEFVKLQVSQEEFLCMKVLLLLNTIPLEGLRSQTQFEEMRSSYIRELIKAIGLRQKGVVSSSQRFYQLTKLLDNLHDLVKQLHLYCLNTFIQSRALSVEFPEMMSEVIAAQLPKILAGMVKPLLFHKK

Cannabinoid receptor 1 [8] = target: T1, Cannabinoid receptor 1; format: functional, cell-based; remark: listed apart in the source
[9] = target: T5, Alpha-2A adrenergic receptor (Homo sapiens, UniProt P08913); format: functional, cell-based
T5 sequence (P08913 whole entry): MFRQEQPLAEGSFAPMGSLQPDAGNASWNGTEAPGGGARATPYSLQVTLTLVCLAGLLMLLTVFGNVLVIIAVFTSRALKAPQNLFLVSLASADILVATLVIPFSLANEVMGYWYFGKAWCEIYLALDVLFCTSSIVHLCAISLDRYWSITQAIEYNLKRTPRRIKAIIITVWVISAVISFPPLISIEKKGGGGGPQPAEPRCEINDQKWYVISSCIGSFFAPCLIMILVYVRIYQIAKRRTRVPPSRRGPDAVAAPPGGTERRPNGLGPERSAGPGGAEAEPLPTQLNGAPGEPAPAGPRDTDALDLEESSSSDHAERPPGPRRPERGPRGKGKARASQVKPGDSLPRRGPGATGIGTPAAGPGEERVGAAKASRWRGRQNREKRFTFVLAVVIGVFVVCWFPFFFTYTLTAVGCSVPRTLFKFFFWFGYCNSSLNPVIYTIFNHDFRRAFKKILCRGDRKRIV

Measured: AC50
Also: assay procedure not described here.

Chain of Adenosine receptor A2a (P29274 whole entry): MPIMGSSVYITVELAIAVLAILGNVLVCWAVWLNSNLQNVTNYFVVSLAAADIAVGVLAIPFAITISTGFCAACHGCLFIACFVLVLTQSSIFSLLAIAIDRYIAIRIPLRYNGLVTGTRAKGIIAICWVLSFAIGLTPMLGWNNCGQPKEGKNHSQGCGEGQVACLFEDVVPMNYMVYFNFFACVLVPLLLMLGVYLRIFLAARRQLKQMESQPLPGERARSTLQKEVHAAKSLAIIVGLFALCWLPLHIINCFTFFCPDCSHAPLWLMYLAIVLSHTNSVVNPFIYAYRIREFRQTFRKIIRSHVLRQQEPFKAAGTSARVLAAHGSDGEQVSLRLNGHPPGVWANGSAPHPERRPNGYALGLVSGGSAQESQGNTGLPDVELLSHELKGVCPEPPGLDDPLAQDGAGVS
Chain of D(3) dopamine receptor (P35462 whole entry): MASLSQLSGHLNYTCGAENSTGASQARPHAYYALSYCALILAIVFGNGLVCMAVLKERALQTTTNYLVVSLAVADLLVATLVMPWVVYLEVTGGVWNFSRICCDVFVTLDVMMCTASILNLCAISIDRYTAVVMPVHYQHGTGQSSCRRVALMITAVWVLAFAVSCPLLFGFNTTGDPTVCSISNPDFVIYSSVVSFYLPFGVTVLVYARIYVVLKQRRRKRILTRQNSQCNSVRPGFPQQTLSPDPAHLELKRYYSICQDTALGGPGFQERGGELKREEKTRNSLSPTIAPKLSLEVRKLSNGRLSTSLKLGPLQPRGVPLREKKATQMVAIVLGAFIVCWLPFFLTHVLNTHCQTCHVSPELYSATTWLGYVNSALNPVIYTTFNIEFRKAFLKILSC
Chain of Histamine H2 receptor (P25021 whole entry): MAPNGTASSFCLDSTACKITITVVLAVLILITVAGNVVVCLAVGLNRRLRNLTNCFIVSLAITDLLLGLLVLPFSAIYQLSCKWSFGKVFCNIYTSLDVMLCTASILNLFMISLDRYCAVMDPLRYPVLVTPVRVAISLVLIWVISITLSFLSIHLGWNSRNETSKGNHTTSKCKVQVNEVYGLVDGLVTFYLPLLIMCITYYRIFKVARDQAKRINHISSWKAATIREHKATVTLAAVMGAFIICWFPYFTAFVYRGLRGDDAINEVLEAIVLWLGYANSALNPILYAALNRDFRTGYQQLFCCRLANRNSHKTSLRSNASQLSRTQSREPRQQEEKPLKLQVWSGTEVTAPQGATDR
Chain of Gamma-aminobutyric acid receptor subunit alpha-1 (P62813 whole entry): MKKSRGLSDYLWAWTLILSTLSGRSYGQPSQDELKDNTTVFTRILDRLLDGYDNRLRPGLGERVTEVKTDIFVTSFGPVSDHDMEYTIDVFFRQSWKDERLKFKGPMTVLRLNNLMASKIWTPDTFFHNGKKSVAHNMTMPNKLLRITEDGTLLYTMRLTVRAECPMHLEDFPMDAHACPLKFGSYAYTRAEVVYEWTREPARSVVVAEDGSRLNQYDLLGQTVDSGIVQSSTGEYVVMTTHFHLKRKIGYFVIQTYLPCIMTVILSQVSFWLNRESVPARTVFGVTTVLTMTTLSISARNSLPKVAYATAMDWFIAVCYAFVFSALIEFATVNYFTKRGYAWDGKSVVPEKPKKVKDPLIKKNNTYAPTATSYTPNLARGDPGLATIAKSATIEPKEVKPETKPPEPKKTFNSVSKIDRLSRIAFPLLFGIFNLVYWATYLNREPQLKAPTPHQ
Chain of Sodium-dependent noradrenaline transporter (P23975 whole entry): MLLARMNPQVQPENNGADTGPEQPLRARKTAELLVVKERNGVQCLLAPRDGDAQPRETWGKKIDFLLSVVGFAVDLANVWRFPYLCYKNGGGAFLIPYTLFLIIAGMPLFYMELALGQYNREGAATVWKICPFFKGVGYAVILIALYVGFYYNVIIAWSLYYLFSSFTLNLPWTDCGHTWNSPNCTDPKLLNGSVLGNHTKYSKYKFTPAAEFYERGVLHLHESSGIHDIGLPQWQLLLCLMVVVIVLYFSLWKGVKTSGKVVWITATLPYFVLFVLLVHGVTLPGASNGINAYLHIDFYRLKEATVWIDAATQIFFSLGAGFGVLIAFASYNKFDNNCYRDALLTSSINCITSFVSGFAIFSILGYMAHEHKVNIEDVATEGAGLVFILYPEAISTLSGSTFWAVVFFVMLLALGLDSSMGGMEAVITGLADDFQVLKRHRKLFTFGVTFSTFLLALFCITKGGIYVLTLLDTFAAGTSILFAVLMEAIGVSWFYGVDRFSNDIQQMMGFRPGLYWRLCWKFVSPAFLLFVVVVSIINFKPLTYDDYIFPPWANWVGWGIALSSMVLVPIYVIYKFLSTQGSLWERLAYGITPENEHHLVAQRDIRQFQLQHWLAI
Chain of Beta-1 adrenergic receptor (P08588 whole entry): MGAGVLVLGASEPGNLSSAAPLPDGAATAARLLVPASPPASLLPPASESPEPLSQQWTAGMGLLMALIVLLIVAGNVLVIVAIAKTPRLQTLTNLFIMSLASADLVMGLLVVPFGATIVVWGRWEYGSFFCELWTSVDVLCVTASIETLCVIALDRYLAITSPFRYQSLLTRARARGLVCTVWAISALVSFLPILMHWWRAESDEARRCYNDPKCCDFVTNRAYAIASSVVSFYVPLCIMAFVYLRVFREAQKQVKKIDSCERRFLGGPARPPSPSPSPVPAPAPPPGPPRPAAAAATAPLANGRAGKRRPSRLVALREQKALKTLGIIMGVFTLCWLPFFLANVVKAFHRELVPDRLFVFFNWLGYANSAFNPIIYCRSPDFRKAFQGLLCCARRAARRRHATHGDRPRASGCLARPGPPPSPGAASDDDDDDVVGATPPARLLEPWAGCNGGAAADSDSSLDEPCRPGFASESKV
T1 sequence (P21554 whole entry): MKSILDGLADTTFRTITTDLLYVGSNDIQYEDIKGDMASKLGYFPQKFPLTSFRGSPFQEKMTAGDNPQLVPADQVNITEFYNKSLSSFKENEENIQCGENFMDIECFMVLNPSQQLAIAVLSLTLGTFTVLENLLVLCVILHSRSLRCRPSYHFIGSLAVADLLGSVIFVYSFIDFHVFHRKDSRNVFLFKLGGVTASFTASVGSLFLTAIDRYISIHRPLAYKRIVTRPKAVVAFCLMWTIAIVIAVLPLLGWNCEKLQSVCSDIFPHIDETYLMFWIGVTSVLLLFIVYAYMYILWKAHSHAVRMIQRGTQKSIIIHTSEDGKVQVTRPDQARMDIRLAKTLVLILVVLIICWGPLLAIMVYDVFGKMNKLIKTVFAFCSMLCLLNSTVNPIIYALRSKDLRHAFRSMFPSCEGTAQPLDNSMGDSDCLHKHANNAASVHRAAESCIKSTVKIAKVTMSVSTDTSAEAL

Nc1nc(Cl)nc2c1ncn2[C@H]1C[C@H](O)[C@@H](CO)O1 [CLADRIBINE]
> 30 µM: all assays above

C[C@@H]1O[C@@H](O[C@@H]2C=C3CC[C@@H]4[C@H](CC[C@]5(C)[C@@H](c6ccc(=O)oc6)CC[C@]45O)[C@@]3(C)CC2)[C@H](O)[C@H](O)[C@H]1O [PROSCILLARIDIN]
> 30 µM: all assays above

NC(=O)CN1CC(O)CC1=O (centres undefined) [OXIRACETAM]
> 30 µM: all assays above
